The test system of test [1] is LLY (Streptococcus mitis SK597 lectinolysin, SEQ ID NO:1) on human donor 1 platelets. Kind of test: Block of the lectin-dependent enhancement of LLY pore formation (calcein release from platelets). In kind it is cell-based. The following applies: high responder platelets pretreated. As to the method: Calcein release assay. PRP was diluted 1:100 with HEPES/saline assay buffer (2 mM CaCl2, 1 mM MgCl2, 150 mM NaCl, 10 mM HEPES, pH 7.5) and incubated with 2 μM calcein-acetoxy methyl ester (Molecular Probes, Eugene, Oreg.) for 10 minutes at room temperature as previously described (17). LLY (0.7-2.9 nM) was incubated with the calcein-loaded PRP for 10 minutes at room temperature. Samples were then diluted with HEPES/saline and analyzed on a FACSCalibur flow cytometer (Becton-Dickinson) using settings as described previously (17). Cells losing calcein fluorescence were quantified as a percentage of total platelets.
The EC50 values for LLY- and LLY^CDC-dependent calcein release were calculated using a nonlinear sigmoidal dose-response curve fit of the data (Prism Software).
We hypothesized that enhancement of LLY activity resulted from a glycan-dependent interaction of the lectin domain after monomer bound the cell surface. If correct then preincubating platelets with LLY^Lec should prevent interaction of the lectin domain of LLY with surface glycans and block the enhancement of LLY activity on the highly sensitive donor 1 platelets.

In test [2] the target is T1, LLY^Lec-Q190C (isolated fucolectin domain of Streptococcus mitis SK597 lectinolysin, SEQ ID NO:3, Q190C = position 154 of the domain) (Streptococcus sp. SK597, UniProt B3UZR3, Q190C).
T1 construct: Alexa-488 maleimide on Cys-190; E. coli
Kind of test: Glycan microarray binding, Alexa-488 labeled LLY^Lec. The settings on record: for glycan microarray binding at the lowest LLY^Lec concentration: 5.6 nM LLY^Lec, determinants lacking the difucosylated structures. As to the method:
FIGS. 7A & 7B. LLY^Lec preferentially binds Le^y and Le^b glycans. Version 2.1 of the printed glycan microarray (Consortium for Functional Glycomics) was probed with Alexa-488 labeled LLY^Lec-Q190C at 560 nM, 56 nM and 5.6 nM. […] The average RFU (from 4-6 analysis with high and low values eliminated) for each bound glycan was determined as described in the Methods and the % CV (100×Standard Deviation÷Average) provides an indication of the precision of each measurement. […] AVG RFU is average relative fluorescence units; SP, spacer arm or linker between glycan and surface of the array; SP0, —CH2CH2NH2; and SP8, CH2CH2CH2NH2. Circles; galactose, squares; GalNac, triangles, fucose, squares; GlcNAc.
Chemical modification of LLY and its derivatives with sulfhydryl-specific fluorescent probes. Cysteine derivatives of LLY and LLY^Lec (i.e., the 162 amino acid fucolectin domain) were modified with Alexa Fluor 488 C5-maleimide (Invitrogen) via the sulfhydryl group as previously described (12). Modified protein stocks were adjusted to 10% (v/v) sterile glycerol, quick frozen in liquid nitrogen, and stored at −80° C. Proteins were labeled at an efficiency of 75% or greater.
Glycan microarray binding assay and scanning. Glycan microarrays were prepared as described previously (33,37) and obtained from the NIH/NIGMS-funded Consortium for Functional Glycomics (see http://www.functionalglycomics.org/static/index.shtml). Before assay, the slides were rehydrated for 5 minutes in TSM buffer (20 mM Tris-HCL, 150 mM sodium chloride (NaCl), 0.2 mM calcium chloride (CaCl2) and 0.2 mM magnesium chloride (MgCl2). Alexa-488-labeled LLY^Q190C and its derivatives were used in the binding assay (560-640 nM), and the bound proteins were detected directly via the fluorescent tag.
The slides were scanned with a Perkin Elmer ProScanarray MicroArray Scanner (Waltham, Mass.) using an excitation wavelength of 488 nm. ImaGene software (BioDiscovery, Inc., El Segundo, Calif.) was used to quantify fluorescence. The data are reported as average relative fluorescence units (RFU) from 4 of the 6 replicates (after removal of the highest and lowest values) for each glycan represented on the array. Versions 2.1 and 3.0 of the printed array were used in these studies and a complete list of glycans printed on these arrays can be found at the Functional Glycomics Gateway website:
Purified LLY^Lec-Q190C was fluorescently labeled with Alexa-488 and used to probe the glycan microarray. […] The AAA glycan binding site contains three key residues that make polar contacts with the fucose molecule. The Nε of His-52 contacts O-5 of the fucose ring whereas the guanidinium groups of Arg-79 and Arg-86 make contact with 3-OH and 4-OH ring hydroxyls of fucose (10). […]

For `C[C@@H]1OC(O)[C@@H](O)[C@H](O)[C@@H]1O` (stereo partly drawn) [fucose, L-fucose], the “effect of pretreatment on the high/low responder EC50 difference” value in test [1] is on record as “This difference was abolished”.
As for Fucα1-2Galβ [H-antigen], the “glycan microarray binding at the lowest LLY^Lec concentration” value (“glycan microarray binding” for short) in test [2] was “binds weakly or not at all”. The “glycan microarray ligand preference” value in test [2] (printed glycan microarray, overall conclusion) was “weaker ligand”.
For “GaNAclα1-3[Fucα1-2]Galβ1-3/4R [blood group A]”, in test [2], the “glycan microarray binding” value was “binds weakly or not at all”.
For the molecule “Galα1-3[Fucα1-2]Galβ1-3/4R [blood group B]”, the “glycan microarray binding” value in test [2] is “binds weakly or not at all”.

These data come from US20110052494A1, “H-ANTIGEN BINDING POLYPEPTIDES AND METHODS OF USE” (priority 2008, published 2011).
